According to ChEMBL document CHEMBL1201862, “PubChem BioAssay data set” (2004):
Values joined by “and” are separate entries in the source; they are usually repeats but may differ in a detail not shown here. Equal values may be shown once.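 Growth conditions: 96-well plates. Treatment: test compound, 48 hours, 5 concentrations. Analysis: linear interpolation between bracketing concentrations; unreached endpoints set to highest concentration. Abbreviation: GI50, concentration required for 50% inhibition of growth.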 Active and inactive are the calls of the source. Cut-off read from the data, not from the text of the source: active = GI50 up to about 1.1 µM and inactive = higher.

Columns and labels:
Assay in all cases: growth of human tumour cells (NCI), 48 h
BT-549 = test system: BT-549
HOP-92 = test system: HOP-92
KM12 = test system: KM12
MCF7 = test system: MCF7
NCI-H226 = test system: NCI-H226
NCI-H23 = test system: NCI-H23
OVCAR-3 = test system: OVCAR-3
OVCAR-5 = test system: OVCAR-5
OVCAR-8 = test system: OVCAR-8
PC-3 = test system: PC-3
SF-268 = test system: SF-268
SN12C = test system: SN12C
T47D = test system: T47D
U-251 = test system: U-251
UO-31 = test system: UO-31
CCRF-CEM = test system: CCRF-CEM
HCC 2998 = test system: HCC 2998
HL-60 = test system: HL-60
DU-145 = test system: DU-145

| SMILES | GI50 (BT-549) | GI50 (HOP-92) | GI50 (KM12) | GI50 (MCF7) | GI50 (NCI-H226) | GI50 (NCI-H23) | GI50 (OVCAR-3) | GI50 (OVCAR-5) | GI50 (OVCAR-8) | GI50 (PC-3) | GI50 (SF-268) | GI50 (SN12C) | GI50 (T47D) | GI50 (U-251) | GI50 (UO-31) | GI50 (CCRF-CEM) | GI50 (HCC 2998) | GI50 (HL-60) | GI50 (DU-145) |
| --- | --- | --- | --- | --- | --- | --- | --- | --- | --- | --- | --- | --- | --- | --- | --- | --- | --- | --- | --- |
| c1ccc(CCc2cccnc2)nc1 | > 100 µM (inactive) | > 100 µM (inactive) | > 100 µM (inactive) | > 100 µM (inactive) | > 100 µM (inactive) | > 100 µM (inactive) | > 100 µM (inactive) | > 100 µM (inactive) | > 100 µM (inactive) | > 100 µM (inactive) | > 100 µM (inactive) | > 100 µM (inactive) | > 100 µM (inactive) | > 100 µM (inactive) | > 100 µM (inactive) | – | – | – | – |
| O=C1C(Cl)C2(CC(/C=C/c3ccccc3)=NN2c2cccc(S(=O)(=O)O)c2)N1c1nc2ccccc2s1 (configuration not stated) | 14.8 µM (inactive) | 11.7 µM (inactive) | 16.3 µM (inactive) | 16.7 µM (inactive) | 17.7 µM (inactive) | 13.2 µM (inactive) | – | 18.1 µM (inactive) | 11.9 µM (inactive) | 16.1 µM (inactive) | 20 µM (inactive) | 17.2 µM (inactive) | 11 µM (inactive) | 14.7 µM (inactive) | 4.32 µM (inactive) | 12.4 µM (inactive) | 14.4 µM (inactive) | 14.9 µM (inactive) | – |
| COc1cc(=O)oc(/C=C/C=C/C=C/C(C)=C\C2(C)OC(C)C(C)(O)C2O)c1C (configuration not stated) | > 100 µM (inactive) | > 100 µM (inactive) | 87.9 µM (inactive) | > 100 µM (inactive) | > 100 µM (inactive) | > 100 µM (inactive) | > 100 µM (inactive) | > 100 µM (inactive) | > 100 µM (inactive) | > 100 µM (inactive) | > 100 µM (inactive) | > 100 µM (inactive) | > 100 µM (inactive) | > 100 µM (inactive) | > 100 µM (inactive) | > 100 µM (inactive) | – | > 100 µM (inactive) | > 100 µM (inactive) |
| CC(C)C(C)/C=C\C(C)C1CCC2C3=CC=C4CC(O)CCC4(C)C3CCC21C (configuration not stated) | > 50.4 µM (inactive) | 5.75 µM (inactive) | > 54.8 µM (inactive) | 30.2 µM (inactive) | > 38 µM (inactive) | > 76.7 µM (inactive) | > 51.1 µM (inactive) | > 100 µM (inactive) | 29.2 µM (inactive) | > 56.2 µM (inactive) | > 42.7 µM (inactive) | > 42.1 µM (inactive) | 81.5 µM (inactive) | > 31.8 µM (inactive) | > 48.3 µM (inactive) | 19.8 µM (inactive) | – | 32.6 µM (inactive) | 51.6 µM (inactive) |
| O=C(O)Cn1ncn(NC(=O)Cc2ccccc2)c1=S | > 10 µM (inactive) | > 10 µM (inactive) | > 10 µM (inactive) | > 10 µM (inactive) | – | > 10 µM (inactive) | > 10 µM (inactive) | > 10 µM (inactive) | > 10 µM (inactive) | > 10 µM (inactive) | > 10 µM (inactive) | > 10 µM (inactive) | > 10 µM (inactive) | > 10 µM (inactive) | > 10 µM (inactive) | > 10 µM (inactive) | > 10 µM (inactive) | – | > 10 µM (inactive) |
| COC(=O)C1=C(CCCCO[Si](C)(C)C(C)(C)C)NC(=O)N2[C@H](CCOCc3ccccc3)CC[C@@H]12 | 45.8 µM (inactive) | 32.1 µM (inactive) | 49.5 µM (inactive) | 34.4 µM (inactive) | > 100 µM (inactive) | 17.6 µM (inactive) | 29.4 µM (inactive) | > 100 µM (inactive) | – | 26.9 µM (inactive) | > 100 µM (inactive) | 30.1 µM (inactive) | 35.4 µM (inactive) | 23.7 µM (inactive) | 43.9 µM (inactive) | – | > 100 µM (inactive) | – | 75.2 µM (inactive) |
| CC1OC(OC2C(OC(=O)[C@]34CCC(C)(C)C[C@H]3C3=CC[C@@H]5[C@@]6(C)CC[C@H](OC7OC(CO)C(O)C(O)C7OC7OC(CO)C(O)C(O)C7O)C(C)(C)[C@@H]6CC[C@@]5(C)[C@]3(C)CC4)OCC(O)C2O)C(O)C(O)C1OC1OCC(O)C(OC2OCC(O)C(O)C2O)C1O (some centres not stated) | 3.51 µM (inactive) and 3.82 µM (inactive) | 1.92 µM (inactive) and 2.15 µM (inactive) | 3.74 µM (inactive) and 3.59 µM (inactive) | – | 3.57 µM (inactive) and 3.8 µM (inactive) | 2.42 µM (inactive) and 3.1 µM (inactive) | 10.7 µM (inactive) and 6.5 µM (inactive) | 4.86 µM (inactive) and 5.37 µM (inactive) | 7.74 µM (inactive) and 11.6 µM (inactive) | 6.62 µM (inactive) and 5.32 µM (inactive) | 6.03 µM (inactive) and 5.07 µM (inactive) | 2.15 µM (inactive) | 4.13 µM (inactive) and 6.3 µM (inactive) | 6.76 µM (inactive) and 9.84 µM (inactive) | 1.88 µM (inactive) and 1.99 µM (inactive) | 11.3 µM (inactive) and 13.2 µM (inactive) | 2 µM (inactive) and 1.76 µM (inactive) | – | 8.11 µM (inactive) and 7.05 µM (inactive) |
| COC(=O)c1ccc(-c2nc(C#N)c(N)o2)cc1 | 23.8 µM (inactive) | – | > 100 µM (inactive) | > 100 µM (inactive) | > 100 µM (inactive) | 35.8 µM (inactive) | > 100 µM (inactive) | > 100 µM (inactive) | 57.1 µM (inactive) | > 100 µM (inactive) | 37.7 µM (inactive) | > 100 µM (inactive) | > 100 µM (inactive) | 31.6 µM (inactive) | > 100 µM (inactive) | > 100 µM (inactive) | – | – | > 100 µM (inactive) |
| O=c1[nH]c2cc([N+](=O)[O-])c(N/N=C/c3ccc(Cl)cc3Cl)c([N+](=O)[O-])c2[nH]1 | > 100 µM (inactive) | 32.9 µM (inactive) | 5.85 µM (inactive) | 42.6 µM (inactive) | 58.3 µM (inactive) | 71.3 µM (inactive) | 17.4 µM (inactive) | 70 µM (inactive) | 20 µM (inactive) | > 100 µM (inactive) | 75.3 µM (inactive) | 37.5 µM (inactive) | > 100 µM (inactive) | 34.4 µM (inactive) | 41.6 µM (inactive) | 23.8 µM (inactive) | – | > 100 µM (inactive) | 51.9 µM (inactive) |
| CC(=O)Oc1ccc(-c2cc3ccccc3oc2=O)cc1OC(C)=O | 35.2 µM (inactive) | – | 11.8 µM (inactive) | 59.2 µM (inactive) | 53.1 µM (inactive) | 53.2 µM (inactive) | – | 15.9 µM (inactive) | 24.1 µM (inactive) | 47.5 µM (inactive) | 27.9 µM (inactive) | 53.7 µM (inactive) | 36.2 µM (inactive) | 32.7 µM (inactive) | 10.9 µM (inactive) | 5.3 µM (inactive) | 18.7 µM (inactive) | 1.89 µM (inactive) | 24.9 µM (inactive) |
| COc1ccccc1[C@@H]1CCC2CC[C@@H](c3ccccc3OC)[N+]21Cc1ccccc1 (some centres not stated) | 0.893 µM (active) | 0.968 µM (active) | 0.522 µM (active) | 0.581 µM (active) | 1.39 µM (inactive) | 0.948 µM (active) | 0.887 µM (active) | 2.88 µM (inactive) | 1.27 µM (inactive) | 1.25 µM (inactive) | 3.64 µM (inactive) | 2.54 µM (inactive) | 0.349 µM (active) | 0.385 µM (active) | 2.96 µM (inactive) | 1.73 µM (inactive) | – | 0.478 µM (active) | 2.28 µM (inactive) |
